The text below walks through data of ChEMBL document CHEMBL4219219, “The synthesis and antistaphylococcal activity of N-sulfonaminoethyloxime derivatives of dehydroabietic acid” (Bioorg Med Chem Lett, 2018).

In one assay the test system is Escherichia coli. The assay can be described thus: Antibacterial activity against Escherichia coli AB1157 at 50 ug/ml after 18 hrs by two-fold serial dilution method. It counts as functional, organism-based.
In assay [1] the test system is Staphylococcus aureus. The assay can be described thus: Antistaphylococcal activity against Staphylococcus aureus Newman after 18 hrs by two-fold serial dilution method. It counts as functional.
For assay [2], the system named is Staphylococcus aureus. Put plainly: Antistaphylococcal activity against aminoglycosides/tetracycline-resistant Staphylococcus aureus NRS-1 after 18 hrs by two-fold serial dilution method. It counts as functional. Particulars: NRS-1, 18 h.
Assay [3] concerns Staphylococcus aureus. Put plainly: Antistaphylococcal activity against erythromycin-resistant Staphylococcus aureus NRS-70 after 18 hrs by two-fold serial dilution method. The class given is functional. Particulars: NRS-70, 18 h.
Assay [4] has as its system Staphylococcus aureus. The assay can be described thus: Antistaphylococcal activity against oxacillin/tetracycline-resistant Staphylococcus aureus NRS-100 after 18 hrs by two-fold serial dilution method. The class given is functional. Particulars: NRS-100, 18 h.
Assay [5] deals with Staphylococcus aureus. Put plainly: Antistaphylococcal activity against gentamicin-resistant Staphylococcus aureus NRS-108 after 18 hrs by two-fold serial dilution method. It counts as functional. The note with it: NRS-108, 18 h.
Assay [6] concerns Staphylococcus aureus. The assay can be described thus: Antistaphylococcal activity against linezolid-resistant Staphylococcus aureus NRS-271 containing phage type E-MRSA 15 after 18 hrs by two-fold serial dilution method. The class given is functional. The note with it: NRS-271, 18 h.

Converted amounts (≈) assume the structure as drawn. The source made the active and inactive calls. No cut-off for these calls is given here. Some results are limits rather than exact numbers.

Regarding `CC(C)c1cc2c(cc1Br)[C@@]1(C)CCC[C@@](C)(C(=O)O)[C@@H]1C/C2=N\OCCNS(=O)(=O)c1ccc(Cl)s1`, in the assay on Escherichia coli, the outcome was inactive. In addition, the MIC lay in the range of 1.56 to 3.13 mg/L (≈ 2.47 to 4.95 µM) against Staphylococcus aureus [1]; 1.56 to 3.13 mg/L (≈ 2.47 to 4.95 µM) in the assay on Staphylococcus aureus [2]; 0.78 to 1.56 mg/L (≈ 1.23 to 2.47 µM) in the assay on Staphylococcus aureus [3]; 1.56 to 3.13 mg/L (≈ 2.47 to 4.95 µM) with Staphylococcus aureus [4]; 1.56 to 3.13 mg/L (≈ 2.47 to 4.95 µM) in the assay with Staphylococcus aureus [5]; 1.56 to 3.13 mg/L (≈ 2.47 to 4.95 µM) in the assay with Staphylococcus aureus [6].
Regarding `CC(C)c1cc2c(cc1Br)[C@@]1(C)CCC[C@@](C)(C(=O)O)[C@@H]1C/C2=N\OCCNS(=O)(=O)c1cccnc1`, the result in the assay on Escherichia coli was inactive. Besides, in the assay on Staphylococcus aureus [1], the MIC was 3.13 to 6.25 mg/L (≈ 5.28 to 10.5 µM).
As for `CC(C)c1cc2c(cc1Br)[C@@]1(C)CCC[C@@](C)(C(=O)O)[C@@H]1C/C2=N\OCCNS(=O)(=O)c1ccc(F)cc1`, the outcome with Escherichia coli was inactive. Also, the MIC against Staphylococcus aureus [1], in the assay on Staphylococcus aureus [2], against Staphylococcus aureus [3], in the assay with Staphylococcus aureus [4], against Staphylococcus aureus [5] and in the assay on Staphylococcus aureus [6] was 1.56 to 3.13 mg/L (≈ 2.56 to 5.13 µM) in each case.
`CC(C)c1cc2c(cc1Br)[C@@]1(C)CCC[C@@](C)(C(=O)O)[C@@H]1C/C2=N\OCCNS(=O)(=O)c1cccc(Br)c1`: in the assay with Escherichia coli, the result was inactive. The MIC in the assay with Staphylococcus aureus [1] was 0.78 to 1.56 mg/L (≈ 1.16 to 2.33 µM); with Staphylococcus aureus [2] it was 1.56 to 3.13 mg/L (≈ 2.33 to 4.67 µM); with Staphylococcus aureus [3], 0.78 to 1.56 mg/L (≈ 1.16 to 2.33 µM); in the assay on Staphylococcus aureus [4], 1.56 to 3.13 mg/L (≈ 2.33 to 4.67 µM); in the assay with Staphylococcus aureus [5], 0.78 to 1.56 mg/L (≈ 1.16 to 2.33 µM); against Staphylococcus aureus [6], 1.56 to 3.13 mg/L (≈ 2.33 to 4.67 µM).
With `CC(C)c1cc2c(cc1Br)[C@@]1(C)CCC[C@@](C)(C(=O)O)[C@@H]1C/C2=N\OCCNS(=O)(=O)c1ccc(Br)cc1`, the result in the assay on Escherichia coli was inactive. In addition, the MIC with Staphylococcus aureus [1], against Staphylococcus aureus [2], in the assay with Staphylococcus aureus [3], with Staphylococcus aureus [4], with Staphylococcus aureus [5] and against Staphylococcus aureus [6] was 0.78 to 1.56 mg/L (≈ 1.16 to 2.33 µM) each time.
Turning to `CCS(=O)(=O)NCCO/N=C1\C[C@H]2[C@](C)(C(=O)O)CCC[C@]2(C)c2cc(Br)c(C(C)C)cc21`, the outcome with Escherichia coli was inactive. This molecule also displayed an MIC against Staphylococcus aureus [1] of 12.5 to 25 mg/L (≈ 23 to 46 µM).
For `CC(C)c1cc2c(cc1Br)[C@@]1(C)CCC[C@@](C)(C(=O)O)[C@@H]1C/C2=N\OCCNS(=O)(=O)c1ccc(C(C)(C)C)cc1` the same measures were “inactive” and 3.13 to 6.25 mg/L (≈ 4.83 to 9.65 µM).
With `CN[C@H](CC(C)C)C(=O)N[C@H]1C(=O)N[C@@H](CC(N)=O)C(=O)N[C@H]2C(=O)N[C@H]3C(=O)N[C@H](C(=O)N[C@H](C(=O)O)c4cc(O)cc(O)c4-c4cc3ccc4O)[C@H](O)c3ccc(c(Cl)c3)Oc3cc2cc(c3O[C@@H]2O[C@H](CO)[C@@H](O)[C@H](O)[C@H]2O[C@H]2C[C@](C)(N)[C@H](O)[C@H](C)O2)Oc2ccc(cc2Cl)[C@H]1O` [VANCOMYCIN], the MIC against Staphylococcus aureus [1] was 0.78 to 1.56 mg/L (≈ 0.538 to 1.08 µM); with Staphylococcus aureus [2] it was 1.56 to 3.13 mg/L (≈ 1.08 to 2.16 µM); against Staphylococcus aureus [3], 0.2 to 0.39 mg/L (≈ 0.138 to 0.269 µM); against Staphylococcus aureus [4] it was 0.39 to 0.78 mg/L (≈ 0.269 to 0.538 µM); in the assay with Staphylococcus aureus [5] it was 0.39 to 0.78 mg/L (≈ 0.269 to 0.538 µM); with Staphylococcus aureus [6], 0.39 to 0.78 mg/L (≈ 0.269 to 0.538 µM).
Take `CN(C)[C@@H]1C(O)=C(C(N)=O)C(=O)[C@@]2(O)C(O)=C3C(=O)c4c(O)cccc4[C@@](C)(O)[C@H]3C[C@@H]12` [TETRACYCLINE]: the MIC is less than 0.2 mg/L in the assay with Staphylococcus aureus [1]; more than 25 mg/L in the assay on Staphylococcus aureus [2]; less than 0.2 mg/L against Staphylococcus aureus [3]; less than 0.2 mg/L in the assay on Staphylococcus aureus [4]; less than 0.2 mg/L against Staphylococcus aureus [5]; less than 0.2 mg/L against Staphylococcus aureus [6].
As for `CC(C)c1cc2c(cc1Br)[C@@]1(C)CCC[C@@](C)(C(=O)O)[C@@H]1C/C2=N\OCCNS(=O)(=O)c1cccs1`, the result in the assay on Escherichia coli was inactive.
Regarding `CC(C)c1cc2c(cc1Br)[C@@]1(C)CCC[C@@](C)(C(=O)O)[C@@H]1C/C2=N\OCCNS(=O)(=O)C1CC1`, in the assay with Escherichia coli, the outcome was inactive. The same molecule returned an MIC with Staphylococcus aureus [1] of 6.25 to 12.5 mg/L (≈ 11.3 to 22.5 µM).
On to `CC(C)c1cc2c(cc1Br)[C@@]1(C)CCC[C@@](C)(C(=O)O)[C@@H]1C/C2=N\OCCNS(=O)(=O)c1ccccc1C(F)(F)F`, for which the result in the assay with Escherichia coli was inactive. Further, the MIC in the assay with Staphylococcus aureus [1] was more than 50 mg/L.
As for `CC(C)c1cc2c(cc1Br)[C@@]1(C)CCC[C@@](C)(C(=O)O)[C@@H]1C/C2=N\OCCNS(=O)(=O)c1c(F)cccc1F`, the outcome with Escherichia coli was inactive. In the assay on Staphylococcus aureus [1], this molecule showed an MIC of more than 50 mg/L.
With `CC(C)c1cc2c(cc1Br)[C@@]1(C)CCC[C@@](C)(C(=O)O)[C@@H]1C/C2=N\OCCNS(=O)(=O)c1ccc(Cl)nc1`, the outcome in the assay with Escherichia coli was inactive. Moreover, the MIC against Staphylococcus aureus [1] was 3.13 to 6.25 mg/L (≈ 4.99 to 9.97 µM).
Regarding `CC(C)c1cc2c(cc1Br)[C@@]1(C)CCC[C@@](C)(C(=O)O)[C@@H]1C/C2=N\OCCN`, in the assay on Escherichia coli, the outcome was inactive. The molecule also came in with an MIC against Staphylococcus aureus [1] of more than 50 mg/L.
